Data from patent US4727070A, “3-Propenzl cephalosporin isomer separation process and derivative” (Bristol-Myers Company, priority 1985, dated 1988).
One block for each compound: values may come before it.

Experiments:
[1] = test system: Gram-negative; settings: cited from earlier work
[2] = Solubility in organic solvents (methanol, acetone, methanol-acetone mixture); assay type: physicochemical; settings: for solubility in methanol-acetone mixture: methanol-acetone containing 20% to 50% by volume methanol, room temperature or below
Text: In carrying out the foregoing process, it is preferred to use sodium 2-ethylhexanoate as salt-forming reagent, but other reagents such as sodium acetate or the sodium salt of other carboxylic acids may be employed. A reaction inert organic solvent such as a liquid alkanol or ester, is preferably employed in combination with the ketone used as imidazolidinone-forming reagent as solvent. A minimal quantity of water may also be employed to facilitate dissolution. The preferred solvents are mixtures of methanol and acetone. […] Accordingly mixtures of these two solvents are employed to provide the desired differential solubility. Mixtures of methanol and acetone containing from 20% to 50% by volume of methanol are suitable. The antibiotic sodium salt 2,2-dimethylimidazolidinone derivative is insoluble in the methanol-acetone mixture at room temperature or below while the 2,2-dimethylimidazolidinone derivative sodium salt of the (E)-isomer is soluble. This difference in solubility provides a basis for the separation of these, otherwise very similar materials.

[3] = Solid state stability on storage (purity of sample); assay type: physicochemical; settings: for remaining at 672 h: 4 Weeks
[4] = Aqueous solution stability (250 mg/ml) at room temperature; assay type: physicochemical; settings: for pH of the aqueous solution: aqueous solution for parenteral injection
[5] = Water solubility; assay type: physicochemical

SMILES: C/C=C\C1=C(C(=O)O)N2C(=O)C(NC(=O)[C@H](N)c3ccc(O)cc3)[C@H]2SC1 (stereo partly drawn) [BMY-28100, 7-[D-2-amino-2-(4-hydroxyphenyl)acetamido]-3-[(Z)-1-propenyl]ceph-3-em-4-carboxylic acid]
Gram-negative antibacterial activity compared to the (E)-isomer [1]: improved

solubility in acetone [2]: substantially insoluble
solubility in methanol [2]: very soluble
solubility in methanol-acetone mixture [2]: soluble
SMILES: C/C=C/C1=C(C(=O)O)N2C(=O)C(N3C(=O)[C@@H](c4ccc(O)cc4)NC3(C)C)C2SC1 (some centres unmarked) [acetonide of BMY-28167]

remaining at 24 h ([3]; 1 Day, 100 deg. C.): 80%
remaining at 168 h ([3]; 1 Week, 70 deg. C.): 94%
remaining at 672 h ([3]; 37 deg. C.): 100%
remaining at 672 h ([3]; 45 deg. C.): 102%
remaining at 672 h ([3]; 56 deg. C.): 98.6%
time to 10% potency loss in aqueous solution ([4]; 250 mg/ml aqueous solution, room temperature, pH 7.2): approximately 2 hours
pH of the aqueous solution [4]: 7.2
water solubility [5]: several hundred
solubility in acetone [2]: substantially insoluble
solubility in methanol [2]: very soluble
solubility in methanol-acetone mixture [2]: insoluble
SMILES: C/C=C\C1=C(C(=O)O)N2C(=O)C(N3C(=O)[C@@H](c4ccc(O)cc4)NC3(C)C)[C@H]2SC1 (some centres unmarked) [sodium 7-[2,2-dimethyl-4-(4-hydroxyphenyl)-5-oxo-1-imidazolidinyl]-3-[(Z)-1-propenyl]ceph-3-em-4-carboxylate]

SMILES: C/C=C\C1=C(C(=O)[O-])N2C(=O)C(NC(=O)[C@H](N)c3ccc(O)cc3)[C@H]2SC1.[Na+] (stereo partly drawn) [sodium salt of the antibiotic, sodium 7-[D-2-amino-2-(4-hydroxyphenyl)acetamido]-3-((Z)-1-propenyl)ceph-3-em-4-carboxylate, reference compound]
pH of the aqueous solution [4]: 8.2
time to 10% potency loss in aqueous solution ([4]; sodium salt of the antibiotic per se, solution pH 8.2): 30 min
